Patent US4495189A, “Condensed pyrimidines” (priority 1975, dated 1985)
Like-named read-outs stand apart in the source and are kept apart here.

What was measured:
[1] = Antiphlogistic activity, method of Northove; assay type: in vivo; settings: 100 mg/kg
Excerpt: Favorable antiphlogistic properties were found in tests carried out by the method of Northove.

rat paw oedema = assay: Antiphlogistic activity, rat paw oedema method (Domenju); assay type: in vivo
Method: The antiphlogistic activity was tested by the rat paw oedema method (Domenju, R: Ann. Univ. Saraviensis 1,317, 1953). The compound were compared with the currently used therapeutic agents Phenylbutazone, aspirin, Indomethacin, Mebron and Amidazophenum.

PGE1 [2] = assay: Vessel wall permeability inhibition, prostaglandin E1; assay type: in vivo
Excerpt: (§1) Thus, it is appropriate to test the effectiveness of a representative compound of the invention in the inflammation response caused by prostaglandin E1 and E2, particularly from the point of view of the vessel wall permeability, which plays an important role in the inflammation.

in vivo [3] = settings: rat, po
PGE2 [4] = assay: Vessel wall permeability inhibition, prostaglandin E2; assay type: in vivo
Excerpt: as §1

PGE1 [5] = assay: Oedema inhibition, inflammation caused by prostaglandin E1; assay type: in vivo
Excerpt: as §1

in vivo [6] = settings: mouse, po
PGE2 [7] = assay: Oedema inhibition, inflammation caused by prostaglandin E2; assay type: in vivo
Excerpt: as §1

platelet aggregation = assay: Platelet aggregation inhibiting activity, comparison of CH-105 and Rimazolium; settings: same conditions for CH-105 and Rimazolium
Excerpt: (§2) Acute toxicity, analgesic and platelet aggregation inhibiting activity of "CH-105" was compared with the same activities of RIMAZOLIUM. RIMAZOLIUM is a commercial product, which is a quaternary salt chemically, but exerts its activity as a tautomeric enamine [Arzneimittel Forschung 21, 717-719 and 719-727 (1971)].

rats [8] = assay: Analgesic activity on rats, hot plate, per os; assay type: in vivo; settings: Rattus norvegicus, po
Excerpt: as §2

mice = assay: Analgesic activity on "Writing" test, on mice; assay type: in vivo; settings: Mus musculus
Excerpt: as §2

[9] = Acute toxicity on rats (i.v.); settings: rat, in vivo, iv
Excerpt: as §2

[10] = test system: collagen induced thrombocyte aggregation; assay: Inhibition of collagen induced thrombocyte aggregation (in vitro); assay type: cell-based
Excerpt: In Table 6 the inhibition of collagen induced thrombocyte aggregation under in vitro conditions is shown.

rats [11] = assay: Chronic toxicity test, ulcerogenicity in rats; assay type: in vivo; settings: one-month old rats, 50 mg/kg, chronic toxicity tests
[12] = Pharmacological and toxicological tests (summary)

## COc1ccc2c(c1)c(CC(=O)O)c(C)n2C(=O)c1ccc(Cl)cc1 [Indomethacin]
Modified writhing test
  ED50: 2.4 mg/kg
  Therapeutic Index: 12

## COc1cc(C)nc(-n2nc(C)cc2OC)n1 [Mebron]
In vivo
  Therapeutic Index: 4.3
Modified writhing test
  ED50: 380 mg/kg
[1]
  Antiphlogistic activity (%), 1 hour: 23%
  Antiphlogistic activity (%), 2 hours: 23%
  Antiphlogistic activity (%), 24 hours: 0%
Rat paw oedema; 100 mg/kg
  Oedema inhibiting effect in %, 1 hour after the administration of the substance: 8%
  Oedema inhibiting effect in %, 2 hours after the administration of the substance: 22%
Rat paw oedema; 300 mg/kg
  Oedema inhibiting effect in %, 1 hour after the administration of the substance: 25%
  Oedema inhibiting effect in %, 2 hours after the administration of the substance: 25%
  Oedema inhibiting effect in %, 24 hours after the administration of the substance: 3%

## CC(=O)Oc1ccccc1C(=O)O [Aspirin]
PGE1 [2]; 200 mg/kg
  Vessel wall permeability inhibition %, PGE1: 30%
PGE1 [2]; 500 mg/kg
  Vessel wall permeability inhibition %, PGE1: 42%
In vivo [3]
  LD50: 1600 mg/kg
PGE2 [4]; 200 mg/kg
  Vessel wall permeability inhibition %, PGE2: 25%
PGE2 [4]; 500 mg/kg
  Vessel wall permeability inhibition %, PGE2: 50%
PGE1 [5]; 200 mg/kg
  Oedema inhibition %, PGE1: 41%
PGE1 [5]; 500 mg/kg
  Oedema inhibition %, PGE1: 45%
In vivo [6]
  LD50: 1100 mg/kg
PGE2 [7]; 200 mg/kg
  Oedema inhibition %, PGE2: 20%
PGE2 [7]; 500 mg/kg
  Oedema inhibition %, PGE2: 54%

## CCOC(=O)c1c[n+](C)c2n(c1=O)C(C)CCC2 (centres unmarked) [Rimazolium, 1,6-dimethyl-3-carbethoxy-4-oxo-6,7,8,9-tetrahydrohomopyrimidazol-methylsulfate]
Platelet aggregation
  platelet aggregation inhibiting activity: practically ineffective
Rats [8]
  ED50: 620 µmol/kg
mice
  ED50: 1050 µmol/kg
[9]
  LD50: 610 µmol/kg

## CC1CCC=C2N(C)C=C(C(=O)Nc3ccccc3)C(=O)N21 (centres unmarked) [Example 6, 1,6-dimethyl-3-(N-phenylcarbamoyl)-4-oxo-1,6,7,8-tetrahydro-4H-pyrido(1,2a)pyrimidine]
[10]; 1 × 10^-3 mole
  Inhibition of collagen induced thrombocyte aggregation in %: 56%
[10]; 1 × 10^-4 mole
  Inhibition of collagen induced thrombocyte aggregation in %: 29%
Rat paw oedema; 500 mg/kg
  Oedema inhibiting effect in %, 2 hours after the administration of the substance: 53%

## CC1CCC=C2N(C)C=C(C(=O)NC(C)(C)C)C(=O)N21 (centres unmarked) [Example 5, 1,6-dimethyl-3-(N-tert-butyl-carbamoyl)-4-oxo-1,6,7,8-tetrahydro-4H-pyrido(1,2a)pyrimidine]
[10]; 1 × 10^-3 mole
  Inhibition of collagen induced thrombocyte aggregation in %: 99%
[10]; 1 × 10^-4 mole
  Inhibition of collagen induced thrombocyte aggregation in %: 85%
Rat paw oedema; 125 mg/kg
  Oedema inhibiting effect in %, 2 hours after the administration of the substance: 50%

## CNC(=O)C1=CN(C)C2=CCCC(C)N2C1=O (centres unmarked) [Example 7, 1,6-dimethyl-3-(N-methyl-carbamoyl)-4-oxo-1,6,7,8-tetrahydro-4H-pyrido(1,2a)pyrimidine]
[10]; 1 × 10^-3 mole
  Inhibition of collagen induced thrombocyte aggregation in %: 100%
[10]; 1 × 10^-4 mole
  Inhibition of collagen induced thrombocyte aggregation in %: 95%
Rat paw oedema; 500 mg/kg
  Oedema inhibiting effect in %, 2 hours after the administration of the substance: 60%

## CC1CCC=C2N(C)C=C(C(=O)NCCc3ccccc3)C(=O)N21 (centres unmarked) [Example 11, 1,6-dimethyl-3-[N-(2-phenyl-ethyl)-carbamoyl]-4-oxo-1,6,7,8-tetrahydro-4H-pyrido(1,2a)pyrimidine]
[10]; 1 × 10^-3 mole
  Inhibition of collagen induced thrombocyte aggregation in %: 96%
[10]; 1 × 10^-4 mole
  Inhibition of collagen induced thrombocyte aggregation in %: 92%
Rat paw oedema; 125 mg/kg
  Oedema inhibiting effect in %, 2 hours after the administration of the substance: 38%

## CC1CCC=C2N(C)C=C(C(=O)NCCC(c3ccccc3)c3ccccc3)C(=O)N21 (centres unmarked) [Example 9, 1,6-dimethyl-3-[N-(3,3-diphenyl-propyl)-carbamoyl]-4-oxo-1,6,7,8-tetrahydro-4H-pyrido(1,2a)pyrimidine]
[10]; 1 × 10^-3 mole
  Inhibition of collagen induced thrombocyte aggregation in %: 70%
[10]; 1 × 10^-4 mole
  Inhibition of collagen induced thrombocyte aggregation in %: 60%

## CCCCC1C(=O)N(c2ccccc2)N(c2ccccc2)C1=O [Phenylbutazone]
Modified writhing test
  ED50: 63 mg/kg
[1]
  Antiphlogistic activity (%), 1 hour: 13%
  Antiphlogistic activity (%), 2 hours: 20%
  Antiphlogistic activity (%), 24 hours: 0%
PGE1 [2]; 100 mg/kg
  Vessel wall permeability inhibition %, PGE1: 10%
PGE1 [2]; 200 mg/kg
  Vessel wall permeability inhibition %, PGE1: 20%
PGE2 [4]; 100 mg/kg
  Vessel wall permeability inhibition %, PGE2: 5%
PGE2 [4]; 200 mg/kg
  Vessel wall permeability inhibition %, PGE2: 20%
PGE1 [5]; 100 mg/kg
  Oedema inhibition %, PGE1: 35%
PGE1 [5]; 200 mg/kg
  Oedema inhibition %, PGE1: 15%
Rat paw oedema; 100 mg/kg
  Oedema inhibiting effect in %, 1 hour after the administration of the substance: 2%
  Oedema inhibiting effect in %, 2 hours after the administration of the substance: 2%
Rat paw oedema; 200 mg/kg
  Oedema inhibiting effect in %, 1 hour after the administration of the substance: 11%
  Oedema inhibiting effect in %, 2 hours after the administration of the substance: 10%
  Oedema inhibiting effect in %, 24 hours after the administration of the substance: 3%
PGE2 [7]; 100 mg/kg
  Oedema inhibition %, PGE2: 10%
PGE2 [7]; 200 mg/kg
  Oedema inhibition %, PGE2: 28%

## CC1CCC=C2N(C)C=C(C(N)=O)C(=O)N21 (centres unmarked) [CH-105, 1,6-dimethyl-3-carbamoyl-4-oxo-1,6,7,8-tetrahydro-4H-pyrido[1,2-a]pyrimidine]
Modified writhing test
  ED50: 70 mg/kg
  Therapeutic Index: 14
[1]
  Antiphlogistic activity (%), 1 hour: 40%
  Antiphlogistic activity (%), 2 hours: 55%
  Antiphlogistic activity (%), 24 hours: 30%
PGE1 [2]; 200 mg/kg
  Vessel wall permeability inhibition %, PGE1: 40%
PGE1 [2]; 500 mg/kg
  Vessel wall permeability inhibition %, PGE1: 40%
Platelet aggregation
  platelet aggregation inhibiting activity: excellent platelet aggregation inhibiting activity
In vivo [3]
  LD50: 750 mg/kg
PGE2 [4]; 200 mg/kg
  Vessel wall permeability inhibition %, PGE2: 35%
PGE2 [4]; 500 mg/kg
  Vessel wall permeability inhibition %, PGE2: 50%
PGE1 [5]; 200 mg/kg
  Oedema inhibition %, PGE1: 30%
PGE1 [5]; 500 mg/kg
  Oedema inhibition %, PGE1: 42%
PGE1 [5]; data of Table 2, PGE1 and PGE2, compared with aspirin
  activity as an oedema inhibitor or a vessel wall permeability reducing agent: activity of the same range as the known active prostaglandinantagonist, aspirin
Rats [11]
  ulcerogenicity: not ulcerogenic
In vivo [6]
  LD50: 975 mg/kg
Rats [8]
  ED50: 410 µmol/kg
mice
  ED50: 210 µmol/kg
[9]
  LD50: 960 µmol/kg
[12]
  antiphlogistic activity, analgesic activity and therapeutic index (in words): significant antiphlogistic activity, analgesic activity and have a favorable therapeutic index
[10]; 1 × 10^-3 mole
  Inhibition of collagen induced thrombocyte aggregation in %: 100%
[10]; 1 × 10^-4 mole
  Inhibition of collagen induced thrombocyte aggregation in %: 90%
Rat paw oedema; 100 mg/kg
  Oedema inhibiting effect in %, 1 hour after the administration of the substance: 25%
  Oedema inhibiting effect in %, 2 hours after the administration of the substance: 34%
Rat paw oedema; 300 mg/kg
  Oedema inhibiting effect in %, 1 hour after the administration of the substance: 45%
  Oedema inhibiting effect in %, 2 hours after the administration of the substance: 52%
  Oedema inhibiting effect in %, 24 hours after the administration of the substance: 8%
PGE2 [7]; 200 mg/kg
  Oedema inhibition %, PGE2: 31%
PGE2 [7]; 500 mg/kg
  Oedema inhibition %, PGE2: 45%
